Measured values reported in patent publication US8258114B2, “Modulation of glucose-6-phosphatase translocase expression” (Isis Pharmaceuticals, Inc., priority 2004, dated 2012).

Tested on: catalytic subunit of glucose-6-phosphatase (G6PC) mRNA
Assay: Reduction of catalytic subunit of glucose-6-phosphatase (G6PC) mRNA in liver or kidney of ZDF rats (Table 15)
Format: in vivo, rat
Conditions: alone or with rosiglitazone 3 mg/kg daily
Method: Saline-injected animals served as a control treatment group.
At the end of the treatment period, animals were sacrificed and target reduction in liver and kidney were measured by real-time PCR as described in other examples herein. Also measured were reductions in the catalytic subunit of glucose-6-phosphatase (G6PC) using a primer-probe set designed to hybridize to that mRNA. For example, the following primer-probe set was designed to hybridize to rat glucose-6-phosphatase translocase sequences cited in Table 1:
Results for each treatment group are shown in Table 15 as the average percent reduction in glucose-6-phosphatase translocase levels or in G6PC as compared to saline treated control.

[1] = ISIS 366228 12.5 mg/kg twice weekly
[2] = ISIS 366228 25 mg/kg twice weekly

GTGCTTGGCGATGGTACTGA (chemistry not given here) [ISIS 366228]
% Inhibition of G6PC, Kidney [1]: 17% | % Inhibition of G6PC, Liver [1]: 39% | % Inhibition of G6PC, Kidney [2]: 33% | % Inhibition of G6PC, Liver [2]: 0%
